This assay addresses T1, GST-tagged ROR gamma ligand binding domain (LBD) (Homo sapiens, UniProt P51449).
T1 construct: purchased Invitrogen
T1 sequence (P51449 269-508 limits assumed): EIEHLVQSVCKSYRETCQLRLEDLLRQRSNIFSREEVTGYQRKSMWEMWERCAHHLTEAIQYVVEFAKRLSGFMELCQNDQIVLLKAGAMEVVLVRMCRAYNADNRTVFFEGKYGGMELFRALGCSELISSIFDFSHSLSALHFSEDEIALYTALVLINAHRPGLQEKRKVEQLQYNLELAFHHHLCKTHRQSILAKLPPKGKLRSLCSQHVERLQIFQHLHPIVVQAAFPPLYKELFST
Nature of the assay: TR-FRET assay for ROR gamma (LanthaScreen co-activator peptide recruitment). It counts as biochemical. Particulars: for inhibition at 1 µM: compound concentration 1 μM; for inhibition at 1 µM / inhibition at 10 µM: TR-FRET ratio 520/495, percent of control; for inhibition at 10 µM: compound concentration 10 μM; for IC50: from dose response curve, nonlinear regression, read-out: IC50 range. The method, boiled down:
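Antagonist-mode co-activator recruitment: 10 nM GST-RORγ LBD with compound (4% DMSO final) in 25 mM HEPES pH 7.4, 100 mM NaCl, 5 mM DTT, 0.01% BSA, 1 h at 22° C.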
A general note: Time-resolved FRET reads energy transfer from a long-lived donor to a nearby acceptor.

For ten molecules, inhibition and IC50 results are on record in patent US10344024B2, “Compounds as ROR gamma modulators” (Glenmark Pharmaceuticals S.A., priority 2015, dated 2019).

Some results are limits rather than exact numbers.

For `CC(O)C(F)(F)c1ccc(CC(=O)Nc2ccc(-c3nccnc3OCc3ccccc3)cc2)cc1` (stereo not shown) [Example 78, N-(4-(3-(Benzyloxy)pyrazin-2-yl)phenyl)-2-(4-(1,1-difluoro-2-hydroxypropyl)phenyl)acetamide], the inhibition (as a rule, the percentage by which the read-out fell short of the control) at 1 µM came to 89.6%; the inhibition at 10 µM was 93.9%; the IC50 – broadly, the midpoint of a concentration-inhibition curve – is less than 50 nM.
`CCC(F)(F)c1ccc(CC(=O)Nc2ccc(-c3nccnc3O[C@H](C)c3ccccc3)cc2)cc1` [Example 79, (R)-2-(4-(1,1-Difluoropropyl)phenyl)-N-(4-(3-(1-phenylethoxy)pyrazin-2-yl)phenyl)acetamide]: the inhibition at 1 µM amounted to 69.5%, the inhibition at 10 µM worked out at 85.8% and the IC50 fell in the range of 100 to 500 nM.
On to `CCC(F)(F)c1ccc(CC(=O)Nc2ccc(-c3nccnc3O[C@@H](C)c3ccccc3)cc2)cc1` [Example 80, (S)-2-(4-(1,1-Difluoropropyl)phenyl)-N-(4-(3-(1-phenylethoxy)pyrazin-2-yl)phenyl)acetamide], for which the inhibition at 1 µM came out at 69.5%, the inhibition at 10 µM was 86.3% and the IC50 was in the range of 100 to 500 nM.
For `CCC(F)(F)c1ccc(CC(=O)Nc2ccc(-c3nccnc3OC(C)c3ccccc3C3CC3)cc2)cc1` (stereo not shown) [Example 81, N-(4-(3-(1-(2-Cyclopropylphenyl)ethoxy)pyrazin-2-yl)phenyl)-2-(4-(1,1-difluoropropyl)phenyl)acetamide] the same measures were 83.2%, 88.3% and 100 to 500 nM.
On to `CC(O)C(F)(F)c1ccc(CC(=O)Nc2ccc(-c3nccnc3OC3(c4ccccc4)CC3)cc2)cc1` (stereo not shown) [Example 82, 2-(4-(1,1-Difluoro-2-hydroxypropyl)phenyl)-N-(4-(3-(1-phenylcyclopropoxy)pyrazin-2-yl)phenyl)acetamide], for which the inhibition at 1 µM turned out to be 37.9% and the inhibition at 10 µM was 80.1%.
For the molecule `CCC(F)(F)c1ccc(CC(=O)Nc2ccc(-c3nccnc3O[C@H](C)c3ccccc3Cl)cc2)cc1` [Example 83, (R)-N-(4-(3-(1-(2-Chlorophenyl)ethoxy)pyrazin-2-yl)phenyl)-2-(4-(1,1-difluoropropyl)phenyl)acetamide], the inhibition at 1 µM amounted to 79.7%, the inhibition at 10 µM amounted to 78.2% and the IC50 lay in the range of 50 to 100 nM.
On to `CC(O)C(F)(F)c1ccc(CC(=O)Nc2ccc(-c3nccnc3O[C@H](C)c3ccccc3Cl)cc2)cc1` (stereo partly drawn) [Example 84, N-(4-(3-((R)-1-(2-Chlorophenyl)ethoxy)pyrazin-2-yl)phenyl)-2-(4-(1,1-difluoro-2-hydroxypropyl)phenyl)acetamide], for which the inhibition at 1 µM amounted to 83.8%, the inhibition at 10 µM was found to be 81.9% and the IC50 lay within 50 to 100 nM.
Consider `CCC(F)(F)c1ccc(CC(=O)Nc2ccc(-c3nccnc3O[C@@H](C)c3ccccc3Cl)cc2)cc1` [Example 85, (S)-N-(4-(3-(1-(2-Chlorophenyl)ethoxy)pyrazin-2-yl)phenyl)-2-(4-(1,1-difluoropropyl)phenyl)acetamide], for which the inhibition at 1 µM stood at 74.8%, the inhibition at 10 µM worked out at 79.6% and the IC50 is 100 to 500 nM.
For `CC(O)C(F)(F)c1ccc(CC(=O)Nc2ccc(-c3nccnc3O[C@@H](C)c3ccccc3Cl)cc2)cc1` (stereo partly drawn) [Example 86, N-(4-(3-((S)-1-(2-Chlorophenyl)ethoxy)pyrazin-2-yl)phenyl)-2-(4-(1,1-difluoro-2-hydroxypropyl)phenyl)acetamide], the inhibition at 1 µM worked out at 84.5%, the inhibition at 10 µM is 86% and the IC50 lay in the range of 50 to 100 nM.
Turning to `CCC(F)(F)c1ccc(CC(=O)Nc2ccc(-c3nccnc3Oc3ccccc3Cl)cc2)cc1` [Example 87, N-(4-(3-(2-Chlorophenoxy)pyrazin-yl)phenyl)-2-(4-(1,1-difluoropropyl)phenyl)acetamide], the inhibition at 1 µM is 16.3% and the inhibition at 10 µM amounted to 32.4%.
